Structures are written as SMILES.

Experiment [1] concerns the target T1, 5-hydroxytryptamine receptor 6 (Homo sapiens, UniProt P50406). As to the kind of experiment: Radioligand Labeled Binding Assay. Conditions: pH 7.4; 22 °C. How it is done:
(§1) IC50 values for each test compound were determined from nonlinear regression analysis of data collected from ligand binding experiments. The inhibition constant (Ki) was calculated from IC50 value by the Cheng and Prusoff equation.

In experiment [2] the target is T1, 5-hydroxytryptamine receptor 6. As to the kind of experiment: Radioligand Labeled Binding Assay and cAMP Production. The following applies: pH 7.4; 22 °C. How it is done: as §1

T1 sequence (P50406 whole entry): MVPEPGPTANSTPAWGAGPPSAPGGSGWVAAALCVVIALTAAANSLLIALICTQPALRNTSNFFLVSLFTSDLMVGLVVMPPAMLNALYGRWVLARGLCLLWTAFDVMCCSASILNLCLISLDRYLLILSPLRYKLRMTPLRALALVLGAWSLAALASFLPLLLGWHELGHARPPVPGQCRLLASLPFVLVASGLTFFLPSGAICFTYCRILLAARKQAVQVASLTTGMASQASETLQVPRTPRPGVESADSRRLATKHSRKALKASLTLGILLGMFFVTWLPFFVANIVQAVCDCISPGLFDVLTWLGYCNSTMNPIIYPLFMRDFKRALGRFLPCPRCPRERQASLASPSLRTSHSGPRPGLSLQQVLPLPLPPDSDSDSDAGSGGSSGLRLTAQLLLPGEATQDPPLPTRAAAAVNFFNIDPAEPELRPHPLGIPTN

By Ki is commonly meant the dissociation constant of the complex between target and ligand, obtained from inhibition or displacement. In turn, `NC(N)=NN=Cc1c[nH]c2ccc(Br)cc12` [3-[(E)-[(5-bromo-1H-indol-3-yl)methylidene]amino]guanidine] displayed an inhibitory constant (Ki) in experiment [1] of 25 nM.
By EC50 is commonly meant the concentration that produces a half-maximal response. Read a low EC50 as an effect from little substance. With `Cc1nc(N)sc1S(=O)(=O)n1cc(CCN)c2ccccc21` [5-{[3-(2-aminoethyl)-1H-indole-1-]sulfonyl}-4-methyl-1,3-thiazol-2-amine], in experiment [2], the EC50 came out at 9.6 nM and the Ki is 10 nM.
In experiment [1], `CC(=NNC(=N)N)c1cn(S(=O)(=O)c2ccccc2)c2ccccc12` [3-[(E)-{1-[1-(benzenesulfonyl)-1H-indol-3-yl]ethylidene}amino]guanidine] showed a Ki of 8 nM.
Take `COc1ccc(S(=O)(=O)n2cc(CCN)c3ccccc32)cc1OC` [2-{1-[(3,4-dimethoxybenzene)sulfonyl]-1H-indol-3-yl}ethan-1-amine]: the concentration giving a half-maximal response (EC50) in experiment [2] stood at 17.5 nM.

(Values after BindingDB's records for doi:10.1021/jm070521y (Wyeth Research, 2007).)
